Data from patent publication US20110152267A1, “Compositions and Methods for Treating Hyperproliferative Disorders” (Texas Tech University System, priority 2009, published 2011).

Legend:
Assay type in all cases: cell-based, human
[1] = system: COG-LL-317 acute lymphoblastic leukemia cell line; assay: DIMSCAN cytotoxicity, fenretinide + L-threo-sphinganines 3:1 (Example B20)
Experimental: (§1) Cytotoxicity Assay—Once again, cytotoxicity is determined using the DIMSCAN assay system (R. Proffitt et al., Cytometry 24, 204-213 (1996); T. Frgala et al., Mol Cancer Ther. 6:886-97, 2007). The system employs digital imaging microscopy to quantify viable cells, which selectively accumulate fluorescein diacetate to become brightly fluorescent. The system is capable of measuring cytotoxicity over a 4-5 log dynamic range by quenching the residual fluorescence of dead and dying cells with eosin Y and quantifying the total fluorescence of viable cells using digital thresholding. Measured fluorescence is directly proportionate to the number of viable cells. A comparison of the total fluorescence of a drug-treated cell population to the fluorescence of a similar number of untreated cells yields a survival fraction. In brief, 2000 to 10,000 cells/well (depending on size and growth rates) are replicate plated into 60 wells of a 96-well tissue culture plate in 0.1 mL of whole medium and allowed to attach overnight. Drug(s) are then added in 0.05 mL of whole medium to the final concentrations indicated. Drugs (fenretinide, and various chain length L-threo-sphinganines) were tested both as single agents and in a 3:1 ratio of fenretinide:sphinganine. C18-L-threo-sphinganine, or “safingol,” was also tested and results shown for reference. There are 12 wells treated per drug concentration. Twelve wells receive drug vehicle-only to the appropriate final concentration and serve as controls for the plate. Cells are incubated for 96 hours at 37° C. in ambient air with 5% CO2. Fluorescein diacetate is then added to each well in 0.05 mL media to a final concentration of 8 microgram/mL. Cells are incubated for a further 15 minutes at 37° C. and 0.03 mL of 0.5% eosin Y is added to each well. Total fluorescence of viable cells is then measured by digital imaging microscopy. Results were graphed as the ratio of the fluoresecence of drug-treated wells to non-drug treated control wells (i.e., Survival Fraction). All tests were performed at least twice. Representative results are shown.
(§2) The Combination Index (CI) is a term to describe mathematical modeling of the pharmacologic effects on cytotoxicity (cell death) of two drugs in combination based. Cytotoxic “synergy” is defined as a cell death affect which is greater than would be expected from a simple product of the single agent cytotoxicities alone (i.e. an “additive” effect). By Chou-Talalay analysis, a CI<0.9 on a Fraction Affected (“Fa”, i.e. fraction of cells killed) indicates synergy, with smaller numbers indicating greater synergy; a CI of 0.9-1.1 signifies an additive or near-additive effect; and a CI>1.1 means the drug combination is antagonistic.
(§3) Fenretinide and L-threo-sphinganines tested in human acute lymphoblastic leukemia (pediatric ALL, a blood cancer) cell lines, COG-LL-317 and MOLT-4.

[2] = system: MOLT-4 acute lymphoblastic leukemia cell line; assay: as above
Experimental: as §1, §2, §3

[3] = system: CHLA-266 primitive neuroectodermal tumor (PNET) cell line; assay: DIMSCAN cytotoxicity, fenretinide + L-threo-sphinganines 3:1 (Example B9); conditions: 96 h
Experimental: as §1, §2
Fenretinide and L-threo-sphinganines tested in human primitive neuroectodermal tumor (PNET) (brain cancer) cell line, CHLA-266.

[4] = system: MCF-7 breast adenocarcinoma cell line; assay: DIMSCAN cytotoxicity, fenretinide + L-threo-sphinganines 3:1 (Example B14); conditions: 96 h
Experimental: as §1, §2
(§4) Fenretinide and L-threo-sphinganines tested in human breast adenocarcinoma (breast cancer) cell lines, MCF-7 and MDA-MB-231.

[5] = system: MDA-MB-231 breast adenocarcinoma cell line; assay: as above; conditions: MDA-MB-231, 20% O2, 96 h
Experimental: as §1, §2, §4

[6] = system: COG-LL-317 Acute Lymphoblastic Leukemia (ALL) cancer cell line; assay: DIMSCAN cytotoxicity dose-response with fenretinide (Examples A, FIGS. 5, 11, 17); conditions: 5% oxygen, at one or more doses, +96 hrs
Experimental: Cytotoxicity Assay: Cytotoxicity in cell lines was determined using a fluorescence-based assay employing digital imaging microscopy (DIMSCAN)(after Fragala, et al, Mol Cancer Ther, 6:886-897, 2007). DIMSCAN quantitates viable cells which selectively accumulate fluorescein diacetate and is capable of measuring cytotoxicity over a 4-5 log dynamic range by quantifying total fluorescence per well (which is proportional to viable, clonogenic cells) after eliminating background fluorescence using digital thresholding and eosin Y quenching. Briefly, cell lines were seeded into 96-well plates in 100 µL of complete culture medium (10-20% serum) per well. Cells were incubated overnight in 2%, 5% or 20% oxygen (room air) prior to addition of drugs in […] volumes of complete medium to various final drug concentrations in replicates of 12 wells per concentration. In assays employing D-threo-PPMP, PPMP was employed at a fixed, minimally-toxic, final concentration of 10 μM in each well. Control wells received ethanol (final concentration=0.12%-0.20%) in complete medium equivalent to the maximum final ethanol concentration of drug-treated wells. Plates were incubated at various oxygen concentrations to simulate physiological hypoxia (i.e., 2% oxygen=typical solid tumor oxygen levels; 5%=bone marrow oxygen levels for leukemias; 20% room air=supraphysiological oxygen for comparison with typical laboratory culture conditions). Plates were assayed at 3-4 days after initiating drug exposure depending on the growth properties of each cell line, to allow for maximum cell death and outgrowth of surviving cells. To measure cytotoxicity, FDA (stock solution of 1 mg/ml in DMSO) was added, in 50 µL of complete medium per well, to a final concentration of 10 µg/ml. The plates were incubated for an additional 15-30 minutes at 37 C and then 30 µL of eosin Y (0.5% in normal saline) was added per well. Total fluorescence of each well was then measured using digital imaging microscopy. […]

[7] = 4-HPR 3 μM + L-threo-sphinganine 1 μM
[8] = 4-HPR 6 μM + L-threo-sphinganine 2 μM
[9] = 4-HPR 9 μM + L-threo-sphinganine 3 μM
[10] = 4-HPR 12 μM + L-threo-sphinganine 4 μM
[11] = 4-HPR 1.5 μM + L-threo-sphinganine 0.5 μM

CCCCCCCCCCCCCC[C@H](O)[C@@H](N)CO [C17, (2S,3S)-2-amino-1,3-heptadecanediol]
CI [1, 7]: 0.8 | Fa [1, 7]: 0.993 | CI [1, 8]: 1.3 | Fa [1, 8]: 0.9993 | CI [1, 9]: 0.5 | Fa [1, 9]: 0.9999 | Fa [1, 10]: 1 | CI [2, 7]: 1.0 | Fa [2, 7]: 0.807 | CI [2, 8]: 0.7 | Fa [2, 8]: 0.998 | CI [2, 9]: 0.8 | Fa [2, 9]: 0.999 | Fa [2, 10]: 1 | CI (Combination Index) [3, 11]: 0.5 | Fa (fraction affected) [3, 11]: 0.502 | CI (Combination Index) [3, 7]: 0.5 | Fa (fraction affected) [3, 7]: 0.913 | CI (Combination Index) [3, 8]: 0.5 | Fa (fraction affected) [3, 8]: 0.990 | CI (Combination Index) [3, 9]: 0.7 | Fa (fraction affected) [3, 9]: 0.989 | CI (Combination Index) [4, 11]: 1.3 | Fa (fraction affected) [4, 11]: 0.112 | CI (Combination Index) [4, 7]: 0.7 | Fa (fraction affected) [4, 7]: 0.661 | CI (Combination Index) [4, 8]: 0.4 | Fa (fraction affected) [4, 8]: 0.974 | CI (Combination Index) [4, 9]: 0.4 | Fa (fraction affected) [4, 9]: 0.993 | CI (Combination Index) [5, 11]: 1.3 | Fa (fraction affected) [5, 11]: 0.127 | CI (Combination Index) [5, 7]: 0.9 | Fa (fraction affected) [5, 7]: 0.265 | CI (Combination Index) [5, 8]: 0.8 | Fa (fraction affected) [5, 8]: 0.610 | CI (Combination Index) [5, 9]: 0.7 | Fa (fraction affected) [5, 9]: 0.948 | C.I. (Combination Index) with fenretinide [6]: < 1
